The values below come from ChEMBL document CHEMBL1949666, “Inhibition of human monoamine oxidase A and B by 5-phenoxy 8-aminoquinoline analogs” (Bioorg Med Chem Lett, 2012).

The species named for one test is Homo sapiens. The experiment in a line: Selectivity index, ratio of IC50 for human recombinant MAOA to IC50 for human recombinant MAOB.
The target in test [1] is T1, Amine oxidase [flavin-containing] B (Homo sapiens, UniProt P27338).
T1 sequence (P27338 whole entry): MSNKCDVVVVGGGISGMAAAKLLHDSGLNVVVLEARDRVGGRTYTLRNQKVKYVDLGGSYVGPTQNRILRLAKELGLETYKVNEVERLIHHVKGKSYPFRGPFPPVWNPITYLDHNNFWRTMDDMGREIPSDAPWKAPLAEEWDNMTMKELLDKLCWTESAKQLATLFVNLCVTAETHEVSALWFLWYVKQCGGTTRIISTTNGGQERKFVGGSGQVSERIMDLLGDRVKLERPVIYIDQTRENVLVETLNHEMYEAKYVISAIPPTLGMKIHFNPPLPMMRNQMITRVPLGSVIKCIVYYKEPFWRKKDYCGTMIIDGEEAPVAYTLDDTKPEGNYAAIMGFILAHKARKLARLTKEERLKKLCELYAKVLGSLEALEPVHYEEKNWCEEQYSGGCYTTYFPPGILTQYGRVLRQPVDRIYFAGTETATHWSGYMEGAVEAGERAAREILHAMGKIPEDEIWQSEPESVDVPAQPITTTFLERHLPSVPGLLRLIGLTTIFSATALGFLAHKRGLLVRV
The experiment in a line: Inhibition of human recombinant MAOB assessed as conversion of kynuramine to 4-hydroxyquinoline preincubated for 15 mins by fluorimetric assay.

Test [2] deals with T2, Amine oxidase [flavin-containing] A (Homo sapiens, UniProt P21397).
T2 sequence (P21397 whole entry): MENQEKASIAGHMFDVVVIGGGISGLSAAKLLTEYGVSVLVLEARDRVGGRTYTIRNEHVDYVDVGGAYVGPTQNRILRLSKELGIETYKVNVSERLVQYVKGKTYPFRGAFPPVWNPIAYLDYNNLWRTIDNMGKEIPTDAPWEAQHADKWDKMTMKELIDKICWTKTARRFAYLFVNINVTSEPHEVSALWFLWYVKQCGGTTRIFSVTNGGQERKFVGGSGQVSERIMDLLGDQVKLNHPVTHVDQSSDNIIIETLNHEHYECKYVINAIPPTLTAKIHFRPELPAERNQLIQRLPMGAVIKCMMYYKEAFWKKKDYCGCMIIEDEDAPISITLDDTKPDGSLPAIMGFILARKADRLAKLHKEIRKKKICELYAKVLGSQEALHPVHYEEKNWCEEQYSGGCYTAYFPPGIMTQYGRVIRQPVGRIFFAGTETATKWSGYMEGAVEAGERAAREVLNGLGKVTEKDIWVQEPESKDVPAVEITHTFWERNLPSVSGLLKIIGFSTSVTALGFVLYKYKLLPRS
The experiment in a line: Inhibition of human recombinant MAOA assessed as conversion of kynuramine to 4-hydroxyquinoline preincubated for 15 mins by fluorimetric assay.

Turning to `COc1cc(NC(C)CCCN)c2nccc(C)c2c1Oc1cccc(F)c1` (stereo unspecified), the Ratio IC50 in the test listed under Homo sapiens was 0.3. The IC50 is 10.8 µM in test [1] and 3.22 µM in test [2].

Take `COc1cc(NC(C)CCCN)c2nccc(C)c2c1Oc1ccc(F)c(F)c1` (stereo unspecified): in the test listed under Homo sapiens, the Ratio IC50 amounted to 6.22. Further, the IC50 in test [1] stood at 3.65 µM; in test [2] it was 22.7 µM.

As to `COc1cc(NC(C)CCCN)c2ncccc2c1` (stereo unspecified) [PRIMAQUINE], in the test filed under Homo sapiens, the Ratio IC50 worked out at 0.8. Moreover, the IC50 in test [1] is 94.5 µM.

On to `COc1cc(NC(C)CCCN)c2nccc(C)c2c1Oc1ccc(F)cc1` (stereo unspecified), for which the Ratio IC50 in the test filed under Homo sapiens was 0.29. The figures for the IC50 in test [1] and in test [2] were 33.4 µM and 9.7 µM, respectively.

The term IC50 denotes the midpoint of a concentration-inhibition curve.
